Data from US20210299101A1, “SYSTEMS, METHODS, AND KITS FOR DIAGNOSTICS AND TREATMENT OF VIRAL RESPIRATORY INFECTION” (priority 2020, published 2021).

How the values were obtained:
SARS-CoV-2 [1] = assay: Example 24: double-blinded placebo controlled study in COVID-19 outpatients, rate of hospitalization at day 14; format: in vivo, human; conditions: following 14 days of treatment; 80 mg qd; 28 male and female outpatients, score 1-2 on 8 point COVID-19 ordinal scale (control group 20%)
Procedure: The primary outcome was the rate of hospitalization at day 14.
28 subjects were assigned to HC-1119 treatment 80 mg qd. The other 28 subjects received standard treatment+HC-1119 placebo. Following 14 days of treatment, 1% of the subjects in the HC-1119 were hospitalized compared to 20% of the subjects in the control group were hospitalzied.

SARS-CoV-2 [2] = assay: Example 23: open label study in hospitalized male and female SARS-CoV-2 patients, survival; format: in vivo, human; conditions: average of 28 days of treatment; 80 mg qd; 31 hospitalized male and female patients, score 6 on 8 point COVID-19 ordinal scale (subjects not in study 3%)
SARS-CoV-2 [3] = assay: Example 21: double-blinded placebo controlled study in hospitalized male SARS-CoV-2 patients, survival at day 14; format: in vivo, human; conditions: following 14 days of treatment; 80 mg qd; 15 hospitalized male patients, score 4-6 on 8 point COVID-19 ordinal scale (control group 55%)
Procedure: The primary outcome was survival at day 14.
15 subjects were assigned to HC-1119 treatment 80 mg qd. The other 15 subjects received standard treatment+HC-1119 placebo.

SARS-CoV-2 [4] = assay: Example 22: double-blinded placebo controlled study in hospitalized female SARS-CoV-2 patients, survival; format: in vivo, human; conditions: following 14 days of treatment; 80 mg qd; 15 hospitalized female patients, score 4-6 on 8 point COVID-19 ordinal scale (control group 67%)
Procedure: The patients were taking birth control and agreed not to engage in unprotected sex for at least 90 days post last dosing. None of the women were lactating.
15 subjects were assigned to HC-1119 treatment 80 mg qd. The other 13 subjects received standard treatment+HC-1119 placebo.

SARS-CoV-2 [5] = assay: Example 2: double-blinded placebo controlled prophylaxis study in health care workers, SARS-CoV-2 test at day 28; conditions: 10 mg/Kg/day oral, of 50 male and female health care workers negative at baseline (placebo 9 of 47)
Procedure: Example 2: A double-blinded placebo controlled study was conducted on 97 male and female health care workers working at two hospital emergency room departments.
At baseline, all subjects were tested negative for SARS-CoV-2 infection. […] The reminder 47 subjects were given a placebo oral pill. At day 28 all subjects were tested for SARS-CoV-2 infection.

SARS-CoV-2 [6] = assay: Example 7: double-blinded placebo controlled study in hospitalized male SARS-CoV-2 patients, survival; format: in vivo, human; conditions: following 15 days of treatment; injection 300 mg; 60 hospitalized male patients (control group 64%)
Procedure: 60 subjects were given an injection of cyproterone acetate (300 mg). The other 53 subjects received standard treatment. Following 15 days of treatment, 84% of the subjects in the cyproterone acetate survived while 64% of the control group survived.

SARS-CoV-2 [7] = format: in vivo; conditions: 1 admitted patient (standard care average 3.6)
[8] = tested on: fetal pulmonary surfactant production; conditions: rabbits, males and females; cited from earlier work
SARS-CoV-2 [9] = assay: Example 5: double-blinded placebo controlled prophylaxis study in male health care workers, SARS-CoV-2 test at day 28; format: in vivo, human; conditions: 0.25 mg/day oral
SARS-CoV-2 [10] = assay: Example 4: double-blinded placebo controlled study in hospitalized male SARS-CoV-2 patients, survival; format: in vivo, human; conditions: following 15 days of treatment; 160 mg qd; 15 hospitalized male patients (control group 7%)
Procedure: 15 subjects were assigned to enzalutamide treatment 160 mg qd. The other 15 subjects received standard treatment. Following 15 days of treatment, 20% of the subjects in the enzalutamide survived while 7% of the control group survived.

SARS-CoV-2 [11] = assay: Example 3: double-blinded placebo controlled prophylaxis study in male health care workers, SARS-CoV-2 test at day 28; format: in vivo, human; conditions: 750 mg/day oral, of 18 male health care workers negative at baseline (placebo 3 of 10)
SARS-CoV-2 [12] = format: in vivo, human; conditions: 3 admitted patients (standard care 4.0)
Procedure: Example 19: A controlled study was conducted on 90 male patients with average age of 51 years old. […] The treatment arm was prescribed nilutamide (300 mg) orally once daily at the start of the trial, the control arm received standard care.
The patients BCRSS score was 1.3.

furin = conditions: human hepatoma cell lines (Chen et al. 2008); cited from earlier work

**Q.** What does the source list for [2H]C([2H])([2H])NC(=O)c1ccc(N2C(=S)N(c3ccc(C#N)c(C(F)(F)F)c3)C(=O)C2(C)C)cc1F [HC-1119]?
**A.** subjects hospitalized (SARS-CoV-2 [1]): 1%; subjects survived (SARS-CoV-2 [2]): 72%; subjects survived (SARS-CoV-2 [3]): 96.3%; subjects survived (SARS-CoV-2 [4]): 91.8%

**Q.** With C=C(C)[C@@H]1CCC(C)=C[C@H]1c1c(O)cc(CCCCC)cc1O [cannabidiol] as the molecule, how does the “subjects tested positive for SARS-CoV-2” value (SARS-CoV-2 [5]) read?
**A.** 2 subjects

**Q.** Which subjects survived (SARS-CoV-2 [6]) does the source give for CC(=O)O[C@]1(C(C)=O)CC[C@H]2[C@@H]3C=C(Cl)C4=CC(=O)[C@@H]5C[C@@H]5[C@]4(C)[C@H]3CC[C@@]21C [cyproterone acetate] here?
**A.** 84%

**Q.** With CC(O)c1cc(C(=O)N[C@@H](C)Cn2ccc(-c3ccc(C#N)c(Cl)c3)n2)[nH]n1 (some centres unmarked) [darolutamide] as the molecule, how does the “BCRSS score of the admitted patient” value (SARS-CoV-2 [7]) read?
**A.** 2

**Q.** For C[C@]12CCC(=O)C[C@@H]1CC[C@@H]1[C@@H]2CC[C@]2(C)[C@@H](O)CC[C@@H]12 [dihydrotestosterone], which “effect on fetal pulmonary surfactant production” value [8] is on record?
**A.** inhibit fetal pulmonary surfactant production

**Q.** What does the source list for C[C@]12C=CC(=O)N[C@@H]1CC[C@@H]1[C@@H]2CC[C@]2(C)[C@@H](C(=O)Nc3cc(C(F)(F)F)ccc3C(F)(F)F)CC[C@@H]12 [dutasteride]?
**A.** subjects tested positive for SARS-CoV-2 (percent) (SARS-CoV-2 [9]; 68 male health care workers (placebo 17%)): 4.4%; subjects tested positive for SARS-CoV-2 (number) (SARS-CoV-2 [9]; of 68 male health care workers negative at baseline (placebo 9 of 53)): 3 subject

**Q.** With CNC(=O)c1ccc(N2C(=S)N(c3ccc(C#N)c(C(F)(F)F)c3)C(=O)C2(C)C)cc1F [enzalutamide] as the molecule, how does the subjects survived (SARS-CoV-2 [10]) read?
**A.** 20%

**Q.** For CC(C)C(=O)Nc1ccc([N+](=O)[O-])c(C(F)(F)F)c1 [flutamide], which “subjects tested positive for SARS-CoV-2” value (SARS-CoV-2 [11]) is on record?
**A.** 1 subject

**Q.** Which “BCRSS score of admitted patients” value (SARS-CoV-2 [12]) does the source give for CC1(C)NC(=O)N(c2ccc([N+](=O)[O-])c(C(F)(F)F)c2)C1=O [nilutamide] here?
**A.** 1.3

**Q.** With N[C@@H](Cc1cc(I)c(Oc2ccc(O)c(I)c2)c(I)c1)C(=O)O [thyroid hormone T3] as the molecule, how does the furin expression (furin) read?
**A.** up-regulated
